Paper PMC6024778 (Viruses, 2018)

Tested on: rMERS-CoV-S2
Type: cell-based, MERS-CoV

CN1CCN(CCOc2cc(OC3CCOCC3)c3c(Nc4c(Cl)ccc5c4OCO5)ncnc3c2)CC1 [Saracatinib]
EC50: 9 µM
